After the bases stand the sugars from the 5' end (letter, count) and the backbone: PS all phosphorothioate, else s phosphorothioate and o phosphodiester by linkage. Methylation of C is not given here. e = 2'-O-(2-methoxyethyl) (MOE); k = constrained ethyl (cEt); d = 2'-deoxy (DNA); m = 2'-O-methyl

In the series the target is HSD17B13. Conditions: ASO, HepaRG.

For the sequence GACTGTTGAGCTCAAA (sugars k3 d10 k3, PS), where the note is “1 µM”, the target mRNA inhibition was 52%. As for GAGAAGATCGGCTGGA (sugars k3 d10 k3, PS), the target mRNA inhibition (1 µM) is 6%.

Consider GAGAAGGCGGTATCAT (sugars k3 d10 k3, PS), for which the target mRNA inhibition (1 µM) was found to be 48%. GAGAATTGTTTAGTTC (sugars k3 d10 k3, PS): the target mRNA inhibition (1 µM) amounted to 47%. Same read-out and setting: to “GAGACATGAGGTTTTG (sugars k3 d1 m1 d8 k3, PS)” belongs 61%; to “GAGACATGAGGTTTTG (sugars k3 d9 k3 e1, PS)”, 61%. The sequence GAGACATGAGGTTTTG (sugars k3 d10 k3, PS) returned a target mRNA inhibition (0.02 µM) of 0%; a target mRNA inhibition (0.078 µM) of 0%; a target mRNA inhibition (0.313 µM) of 22%; a target mRNA inhibition (1 µM) of 77%; a target mRNA inhibition (1.25 µM) of 65%; a target mRNA inhibition (5 µM) of 88%. “GAGATAAAGCTGCCTG (sugars k3 d9 k3 e1, PS)” had a target mRNA inhibition (1 µM) of 55%. On to GAGCTAGACAATTGCA (sugars k3 d10 k3, PS), for which the target mRNA inhibition (1 µM) came out at 73%. The same measure, in the same setting: to GAGGATAGTCCATGCA (sugars k3 d10 k3, PS) belongs 59%; to GAGGATAGTGAACATA (sugars k3 d10 k3, PS), 50%.

Consider GAGGGTCCACTTTTGG (sugars k3 d10 k3, PS), for which the target mRNA inhibition (1 µM) was 23%.

Take GAGTATTTCCTCTGGG (sugars k3 d10 k3, PS): the target mRNA inhibition (1 µM) was 23%. GAGTTATTGTAGGGAT (sugars k3 d10 k3, PS) gave a target mRNA inhibition (1 µM) of 69%. As for “GAGTTGCACCGTTTTG (sugars k3 d9 k3 e1, PS)”, the target mRNA inhibition (1 µM) amounted to 62%. Still for that read-out and setting: then GATACACCAATGCAGT (sugars k3 d10 k3, PS), with 73%. For GATACTATTCTCCAAC (sugars k3 d10 k3, PS), the target mRNA inhibition (1 µM) came out at 44%.

With GATAGAGCACATGGCC (sugars k3 d10 k3, PS), where the note is “1 µM”, the target mRNA inhibition is 20%.

Sequence GATAGTCCATGCAAAA (sugars k3 d10 k3, PS) showed a target mRNA inhibition (1 µM) of 64%.

GATATACGATGGAACA (sugars k3 d10 k3, PS) had a target mRNA inhibition (1 µM) of 46%.

On to GATATACTGTCCCAGC (sugars k3 d10 k3, PS), for which the target mRNA inhibition (1 µM) stood at 34%.

Sequence GATATGTCAATACTCC (sugars k3 d10 k3, PS) showed a target mRNA inhibition (1 µM) of 59%.

In turn, GATATTATGTTCTTGG (sugars k3 d10 k3, PS) returned a target mRNA inhibition (1 µM) of 59%. For the sequence “GATATTCTGTGGCATG (sugars k3 d9 k3 e1, PS)”, the target mRNA inhibition by setting is: (0.02 µM) 8%; (0.078 µM) 0%; (0.313 µM) 43%; (1 µM) 71%; (1.25 µM) 65%; (5 µM) 80%. In the case of “GATAUTCTGTGGCATG (sugars k3 d1 m1 d8 k3, PS)”, under “1 µM”, the target mRNA inhibition came to 60%. On the same count and under the same terms, to GATCAAATGTATGTGC (sugars k3 d10 k3, PS) belongs 25%; to GATCCTATATACATCC (sugars k3 d10 k3, PS), 49%; to GATCTAAAACTGAAGG (sugars k3 d10 k3, PS), 44%. On to GATCTAGAACACTTGC (sugars k3 d10 k3, PS), for which the target mRNA inhibition (1 µM) was found to be 27%. Take GATGAGAGTCTTTCTT (sugars k3 d10 k3, PS): under “1 µM”, the target mRNA inhibition stood at 26%. Same read-out and setting: to GATGCTAAAAGCTCAC (sugars k3 d10 k3, PS) belongs 46%.

In turn, “GATGCTCCATAATAAT (sugars k3 d9 k3 e1, PS)” gave a target mRNA inhibition (1 µM) of 15%. Same read-out and setting: to GATGGTAAGGAGTAGT (sugars k3 d10 k3, PS) belongs 28%. On the same count and under the same terms, to GATGTAGTGGGAGTCG (sugars k3 d10 k3, PS) belongs 67%. With GATGTCAGACCTCTGT (sugars k3 d10 k3, PS), under “1 µM”, the target mRNA inhibition was 6%.

With GATGTTGACCTCAAAT (sugars k3 d10 k3, PS), the target mRNA inhibition (1 µM) was determined as 0%. Same read-out and setting: then “GATTAAGCAGAATTGT (sugars k3 d9 k3 e1, PS)”, with 28%; and GATTAATTCCCTTCCA (sugars k3 d10 k3, PS), with 30%; and GATTGAGTTCTCCACT (sugars k3 d10 k3, PS), with 45%. With GATTGCATAAGAGCCA (sugars k3 d10 k3, PS), the target mRNA inhibition by setting is: (0.02 µM) 6%; (0.078 µM) 31%; (0.313 µM) 57%; (1 µM) 82%; (1.25 µM) 67%; (5 µM) 58%. Turning to GATTGGAATGCTACTT (sugars k3 d10 k3, PS), the target mRNA inhibition (1 µM) came out at 58%. Same read-out and setting: to “GATTGGAATGCTACTT (sugars kkkddddkddddkkke, PS)” belongs 59%; to GATTTAGTTGGTAGCT (sugars k3 d10 k3, PS), 63%; to GCAAAGATCTGGCCAG (sugars k3 d10 k3, PS), 22%.

As for “GCAAGCCAACAGAGAG (sugars kkdddddddddkekek, PS)”, the target mRNA inhibition (1 µM) is 12%. Same read-out and setting: to GCAAGGATACCTGAAA (sugars k3 d10 k3, PS) belongs 67%; to “GCACCGTTTTGGGCTA (sugars k3 d1 m1 d8 k3, PS)”, 67%. For the sequence GCACTAAAGGTTTCTG (sugars k3 d10 k3, PS), the target mRNA inhibition worked out at 24% (0.02 µM); 39% (0.078 µM); 58% (0.313 µM); 75% (1 µM); 79% (1.25 µM); 90% (5 µM).

Take GCAGAGACATGAGGTT (sugars k3 d10 k3, PS): the target mRNA inhibition (1 µM) amounted to 55%. The same measure, in the same setting: to GCAGCTAAAATCCAAT (sugars k3 d10 k3, PS) belongs 70%.

As to “GCAGTTATTAGAAGTC (sugars kkdddddddddkekek, PS)”, the target mRNA inhibition (1 µM) came to 68%. Under “1 µM”, “GCAGUTATTAGAAGTC (sugars k3 d1 m1 d8 k3, PS)” displayed a target mRNA inhibition of 59%. On the same count and under the same terms, then GCATAAGAGATGAGTA (sugars k3 d10 k3, PS), with 33%. On to GCATCTTAAGATACCC (sugars k3 d10 k3, PS), for which the target mRNA inhibition runs as follows: (0.02 µM) 16%; (0.078 µM) 45%; (0.313 µM) 82%; (1 µM) 82%; (1.25 µM) 89%; (5 µM) 97%. Turning to “GCATCTTAAGATACCC (sugars kkdddddddddkekek, PS)”, under “1 µM”, the target mRNA inhibition was 41%.

Sequence “GCATGGCTACAGATTG (sugars k3 d9 k3 e1, PS)” returned a target mRNA inhibition (1 µM) of 67%.

Sequence GCATTAAAACTCTCAT (sugars k3 d10 k3, PS) yielded a target mRNA inhibition (1 µM) of 35%. On the same count and under the same terms, to “GCATTAATGCCACCCT (sugars k3 d9 k3 e1, PS)” belongs 51%; to GCATTATTCACCACGA (sugars k3 d10 k3, PS), 59%; to GCATTGAAAAGATGTA (sugars k3 d10 k3, PS), 0%. As for GCATTGATTCGAAACT (sugars k3 d10 k3, PS), the target mRNA inhibition (1 µM) is 66%.

In turn, GCATTGTAATCTTGAG (sugars k3 d10 k3, PS) had a target mRNA inhibition (1 µM) of 35%.

For the setting “1 µM”, GCCAACAGCGGCAAAT (sugars k3 d10 k3, PS) yielded a target mRNA inhibition of 30%. On the same count and under the same terms, to GCCAAGGGAACACTGT (sugars k3 d10 k3, PS) belongs 61%; to GCCAGGGAATGCTCAT (sugars k3 d10 k3, PS), 38%.

Consider GCCATAATCTGTGATT (sugars k3 d10 k3, PS), for which, where the note is “1 µM”, the target mRNA inhibition is 0%. Same read-out and setting: to GCCCTAGATTCTACAC (sugars k3 d10 k3, PS) belongs 15%; to GCCTAAACAAACACTA (sugars k3 d10 k3, PS), 37%. Still for that read-out and setting: to “GCCTTGAATAGCAAGC (sugars kkdddddddddkekek, PS)” belongs 16%; to GCCTTTTAACTACCCT (sugars k3 d10 k3, PS), 0%. In the case of GCTAAAAGCTCACCAA (sugars k3 d10 k3, PS), the target mRNA inhibition (1 µM) came out at 26%.

With GCTAAACCCTGGAGCA (sugars k3 d10 k3, PS), the target mRNA inhibition (1 µM) turned out to be 5%. Still for that read-out and setting: to GCTACAGATTGGAATG (sugars k3 d10 k3, PS) belongs 47%; to GCTACTTGAACAGTCT (sugars k3 d10 k3, PS), 66%.

GCTAGGGAAATCTTTC (sugars k3 d10 k3, PS) registered a target mRNA inhibition (1 µM) of 66%.

As for “GCTAGTGCCAAACCAA (sugars k3 d1 m1 d8 k3, PS)”, under “1 µM”, the target mRNA inhibition stood at 65%.

As for GCTAGTGCCAAACCAA (sugars k3 d10 k3, PS), the target mRNA inhibition reads like this: (0.02 µM) 0%; (0.078 µM) 8%; (0.313 µM) 39%; (1 µM) 70%; (1.25 µM) 65%; (5 µM) 87%. Regarding “GCTAGTGCCAAACCAA (sugars kkdddddddddkekek, PS)”, for the setting “1 µM”, the target mRNA inhibition is 62%. The same measure, in the same setting: to “GCTCCATAATAATAGC (sugars kkdddddddddkekek, PS)” belongs 15%; to GCTGAGAAGATCGGCT (sugars k3 d10 k3, PS), 10%. On the same count and under the same terms, then GCTGAGAGAGTATTTC (sugars k3 d10 k3, PS), with 51%; and “GCTGCTAGTGCCAAAC (sugars k3 d1 m1 d8 k3, PS)”, with 39%.

The values above are taken from the OligoGym collection.
